In test [1] the target is Sodium channel protein type 4 subunit alpha (Homo sapiens, UniProt P35499). In words: Modulation of human Nav1.4 by automated patch clamp electrophysiology assay.
Test [2] deals with Sodium channel protein type 3 subunit alpha (Homo sapiens, UniProt Q9NY46). In words: Modulation of human Nav1.3 by automated patch clamp electrophysiology assay.
The target of test [3] is Sodium channel protein type 9 subunit alpha (Homo sapiens, UniProt Q15858). Description: Modulation of human Nav1.7 by automated patch clamp electrophysiology assay. Background: The patch-clamp technique gives a direct electrical read-out from membranes.
Test [4] deals with Sodium channel protein type 5 subunit alpha (Homo sapiens, UniProt Q14524). Description: Modulation of human Nav1.5 by automated patch clamp electrophysiology assay.

pIC50: −log10 of the molar value.

Sequence of Sodium channel protein type 5 subunit alpha (Q14524 whole entry): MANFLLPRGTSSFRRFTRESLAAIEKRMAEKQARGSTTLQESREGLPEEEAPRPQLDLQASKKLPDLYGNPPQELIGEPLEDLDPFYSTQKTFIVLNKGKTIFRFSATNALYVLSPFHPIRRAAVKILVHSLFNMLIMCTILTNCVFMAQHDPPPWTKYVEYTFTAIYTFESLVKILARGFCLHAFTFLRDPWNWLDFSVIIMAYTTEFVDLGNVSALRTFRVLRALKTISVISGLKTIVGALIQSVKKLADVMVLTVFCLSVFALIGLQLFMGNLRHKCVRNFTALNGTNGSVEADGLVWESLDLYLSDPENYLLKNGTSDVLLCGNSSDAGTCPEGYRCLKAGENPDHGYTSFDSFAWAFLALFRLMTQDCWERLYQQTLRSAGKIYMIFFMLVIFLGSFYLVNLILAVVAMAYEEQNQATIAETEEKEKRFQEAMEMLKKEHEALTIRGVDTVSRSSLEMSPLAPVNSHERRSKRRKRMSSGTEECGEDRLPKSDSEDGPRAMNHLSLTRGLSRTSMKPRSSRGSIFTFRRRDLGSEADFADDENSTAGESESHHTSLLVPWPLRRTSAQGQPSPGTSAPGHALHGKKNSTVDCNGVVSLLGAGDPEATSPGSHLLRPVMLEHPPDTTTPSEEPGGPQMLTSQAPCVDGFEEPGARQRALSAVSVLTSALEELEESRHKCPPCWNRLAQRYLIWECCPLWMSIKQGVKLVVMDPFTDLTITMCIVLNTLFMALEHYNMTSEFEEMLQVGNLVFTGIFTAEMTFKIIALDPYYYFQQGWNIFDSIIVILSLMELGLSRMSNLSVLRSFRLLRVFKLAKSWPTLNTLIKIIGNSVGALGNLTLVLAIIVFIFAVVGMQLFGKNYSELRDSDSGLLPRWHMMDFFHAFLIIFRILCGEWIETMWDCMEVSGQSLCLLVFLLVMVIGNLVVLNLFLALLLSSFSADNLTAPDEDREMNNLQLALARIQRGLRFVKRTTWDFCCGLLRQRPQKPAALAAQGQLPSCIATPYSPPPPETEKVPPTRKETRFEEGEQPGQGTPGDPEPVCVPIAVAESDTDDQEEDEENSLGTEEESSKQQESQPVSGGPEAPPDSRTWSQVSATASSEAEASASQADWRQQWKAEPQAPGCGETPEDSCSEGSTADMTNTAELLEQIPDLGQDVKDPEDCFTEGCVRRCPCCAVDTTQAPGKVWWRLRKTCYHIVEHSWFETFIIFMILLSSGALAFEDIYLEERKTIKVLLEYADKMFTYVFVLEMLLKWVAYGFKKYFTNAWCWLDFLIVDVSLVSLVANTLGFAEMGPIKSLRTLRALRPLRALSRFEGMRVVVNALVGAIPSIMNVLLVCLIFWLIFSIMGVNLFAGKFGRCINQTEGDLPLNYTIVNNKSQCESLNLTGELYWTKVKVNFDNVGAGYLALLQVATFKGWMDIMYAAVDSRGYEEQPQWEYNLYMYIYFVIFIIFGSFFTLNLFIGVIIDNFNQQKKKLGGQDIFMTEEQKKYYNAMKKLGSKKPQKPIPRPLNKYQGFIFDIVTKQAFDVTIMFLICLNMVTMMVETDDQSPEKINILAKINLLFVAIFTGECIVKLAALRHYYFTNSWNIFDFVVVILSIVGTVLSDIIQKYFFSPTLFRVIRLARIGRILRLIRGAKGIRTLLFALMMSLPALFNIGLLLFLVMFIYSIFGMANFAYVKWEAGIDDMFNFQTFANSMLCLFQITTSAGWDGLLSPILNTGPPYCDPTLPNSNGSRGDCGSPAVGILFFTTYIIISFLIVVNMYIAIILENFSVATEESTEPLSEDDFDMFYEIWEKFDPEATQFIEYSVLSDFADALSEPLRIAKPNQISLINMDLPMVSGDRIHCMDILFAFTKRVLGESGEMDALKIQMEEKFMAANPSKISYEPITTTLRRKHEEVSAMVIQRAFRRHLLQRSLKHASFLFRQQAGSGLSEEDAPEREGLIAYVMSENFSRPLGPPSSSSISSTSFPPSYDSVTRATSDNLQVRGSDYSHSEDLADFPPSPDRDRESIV
Sequence of Sodium channel protein type 3 subunit alpha (Q9NY46 whole entry): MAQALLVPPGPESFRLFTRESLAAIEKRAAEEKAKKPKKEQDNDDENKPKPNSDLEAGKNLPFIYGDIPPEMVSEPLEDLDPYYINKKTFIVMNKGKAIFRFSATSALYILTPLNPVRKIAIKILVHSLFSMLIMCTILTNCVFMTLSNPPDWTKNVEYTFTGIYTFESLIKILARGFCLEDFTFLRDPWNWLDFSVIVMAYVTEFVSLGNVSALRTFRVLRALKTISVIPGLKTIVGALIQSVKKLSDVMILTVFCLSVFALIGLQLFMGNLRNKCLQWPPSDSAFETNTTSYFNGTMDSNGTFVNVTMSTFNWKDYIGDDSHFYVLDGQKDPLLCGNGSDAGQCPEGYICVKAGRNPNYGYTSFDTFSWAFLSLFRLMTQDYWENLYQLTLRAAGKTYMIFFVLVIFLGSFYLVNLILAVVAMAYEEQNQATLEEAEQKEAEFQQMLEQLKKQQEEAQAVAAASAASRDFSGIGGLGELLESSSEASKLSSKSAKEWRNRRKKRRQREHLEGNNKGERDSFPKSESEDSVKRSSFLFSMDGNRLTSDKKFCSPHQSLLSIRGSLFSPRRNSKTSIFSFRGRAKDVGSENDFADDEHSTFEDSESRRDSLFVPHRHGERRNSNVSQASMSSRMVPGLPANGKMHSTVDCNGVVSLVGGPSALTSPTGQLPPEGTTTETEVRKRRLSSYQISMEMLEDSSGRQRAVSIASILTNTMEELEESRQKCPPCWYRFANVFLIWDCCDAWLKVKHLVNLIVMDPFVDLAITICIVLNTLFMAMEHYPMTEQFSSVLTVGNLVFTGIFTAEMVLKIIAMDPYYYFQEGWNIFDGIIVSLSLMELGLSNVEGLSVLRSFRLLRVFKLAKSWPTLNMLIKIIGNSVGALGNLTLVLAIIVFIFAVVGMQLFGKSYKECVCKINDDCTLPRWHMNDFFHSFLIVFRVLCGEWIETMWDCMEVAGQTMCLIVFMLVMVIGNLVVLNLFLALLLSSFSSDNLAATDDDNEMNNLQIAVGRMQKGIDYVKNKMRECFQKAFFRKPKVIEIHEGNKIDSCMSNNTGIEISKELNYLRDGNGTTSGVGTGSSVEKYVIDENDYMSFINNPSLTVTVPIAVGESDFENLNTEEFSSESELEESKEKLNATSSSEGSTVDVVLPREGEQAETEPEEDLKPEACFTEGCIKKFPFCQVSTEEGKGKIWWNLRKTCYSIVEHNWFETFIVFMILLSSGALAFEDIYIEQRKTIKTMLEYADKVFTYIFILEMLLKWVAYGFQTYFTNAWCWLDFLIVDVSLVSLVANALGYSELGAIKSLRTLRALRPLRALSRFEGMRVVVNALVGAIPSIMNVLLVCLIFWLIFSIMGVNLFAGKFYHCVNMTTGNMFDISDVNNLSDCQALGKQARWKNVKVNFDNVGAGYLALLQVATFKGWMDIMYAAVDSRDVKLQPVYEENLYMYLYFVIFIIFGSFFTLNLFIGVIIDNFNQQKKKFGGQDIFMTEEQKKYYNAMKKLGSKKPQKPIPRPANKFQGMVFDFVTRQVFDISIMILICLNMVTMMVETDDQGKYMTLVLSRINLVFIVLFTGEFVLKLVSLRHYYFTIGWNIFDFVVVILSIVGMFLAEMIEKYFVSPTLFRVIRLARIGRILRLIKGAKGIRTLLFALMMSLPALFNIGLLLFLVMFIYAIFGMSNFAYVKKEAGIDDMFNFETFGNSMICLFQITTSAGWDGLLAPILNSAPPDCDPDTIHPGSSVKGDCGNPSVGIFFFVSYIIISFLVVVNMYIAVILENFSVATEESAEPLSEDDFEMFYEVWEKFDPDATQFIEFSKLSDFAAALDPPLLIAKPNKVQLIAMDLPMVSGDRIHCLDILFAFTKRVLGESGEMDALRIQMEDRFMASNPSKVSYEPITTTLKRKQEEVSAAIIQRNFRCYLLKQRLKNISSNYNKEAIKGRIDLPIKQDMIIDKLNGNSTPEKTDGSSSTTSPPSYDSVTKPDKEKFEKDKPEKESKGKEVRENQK

The pIC50 is the negative decadic logarithm of the IC50, by convention in mol/L. Higher therefore signals a small IC50. On to `Nc1nc2c(s1)C[C@@H](NC(=O)c1cc3ccccc3[nH]1)CC2`, for which the pIC50 is 4.80 in test [1], under 4.52 in test [2], 4.54 in test [3] and under 4.52 in test [4].

Regarding `CC(C)(C)OC(=O)N1CCC[C@H]1C(=O)N[C@H]1CCc2nc(N)sc2C1`, the pIC50 was 5.10 in test [1], under 4.52 in test [2], under 4.52 in test [3] and under 4.52 in test [4].

In the case of `Nc1nc2c(s1)C[C@@H](NC(=O)[C@@H]1CCCN1)CC2`, the pIC50 in test [1] was 4.60; in test [2], under 4.52; in test [3] it was under 4.52; in test [4], under 4.52.

As to `Cn1cccc1C(=O)N[C@H]1CCc2nc(N)sc2C1`, the pIC50 in test [1] was 4.80; in test [2], 4.62; in test [3], under 4.52; in test [4] it was under 4.52.

Consider `Nc1nc2c(s1)C[C@@H](NC(=O)c1ccco1)CC2`, for which the pIC50 in test [1] is under 4.52; in test [2], 4.57; in test [3], under 4.52; in test [4], under 4.52.

In the case of `Nc1nc2c(s1)C[C@@H](NCc1ccc[nH]1)CC2`, the pIC50 is 4.52 in test [1], 4.60 in test [2], 4.68 in test [3] and under 4.52 in test [4].

As for `Nc1nc2c(s1)CC(CNC(=O)c1ccc[nH]1)CC2` (stereo unspecified), the pIC50 in test [1] is under 4.52; in test [2] it was 4.55; in test [3] it was 4.70; in test [4], 4.68.

Consider `Nc1nc2c(s1)CC(CNC(=O)c1cc(Br)c(Br)[nH]1)CC2` (stereo unspecified), for which the pIC50 is under 4.52 in test [1], 4.74 in test [2], 4.64 in test [3] and under 4.52 in test [4].

For `Nc1nc2c(s1)CC(CNC(=O)c1cc3ccccc3[nH]1)CC2` (stereo unspecified), the pIC50 was 4.68 in test [1], 4.80 in test [2], 4.64 in test [3] and under 4.52 in test [4].

With `CC(C)(C)OC(=O)N1CCC[C@H]1C(=O)NCC1CCc2nc(N)sc2C1` (stereo partly specified), the pIC50 in test [1] was under 4.52; in test [2], 4.59; in test [3], under 4.52; in test [4] it was 4.70.

In the case of `Nc1nc2c(s1)CC(CNC(=O)[C@@H]1CCCN1)CC2` (stereo partly specified), the pIC50 in test [1], in test [2], in test [3] and in test [4] was under 4.52 throughout.

Consider `Nc1nc2c(s1)C[C@@H](NC(=O)c1ccc[nH]1)CC2`, for which the pIC50 was under 4.52 in test [1], under 4.52 in test [2], 4.68 in test [3] and under 4.52 in test [4].

Take `Nc1nc2c(s1)C[C@@H](NC(=O)c1cc(Br)c[nH]1)CC2`: the pIC50 in test [1] was under 4.52; in test [2], 4.59; in test [3], 4.74; in test [4], 4.68.

For `Nc1nc2c(s1)C[C@@H](NC(=O)c1cc(Br)c(Br)[nH]1)CC2`, the pIC50 is 4.82 in test [1], 4.59 in test [2], 4.80 in test [3] and under 4.52 in test [4].

For the origin of these results see ChEMBL document CHEMBL3085695, “Novel state-dependent voltage-gated sodium channel modulators, based on marine alkaloids from Agelas sponges” (Eur J Med Chem, 2013).
